# Results taken from US20220259193A1, “KCNT1 INHIBITORS AND METHODS OF USE” (Praxis Precision Medicines, Inc., priority 2019, published 2022).
# Molecular target: T1, KCNT1 (KNa1.1, Slack) (Homo sapiens, UniProt Q5JUK3)
# T1 construct: expressed in transfected cells; host or cells: HEK-TREX (tetracycline-inducible HEK cell line)
# T1 sequence (Q5JUK3 1-1230): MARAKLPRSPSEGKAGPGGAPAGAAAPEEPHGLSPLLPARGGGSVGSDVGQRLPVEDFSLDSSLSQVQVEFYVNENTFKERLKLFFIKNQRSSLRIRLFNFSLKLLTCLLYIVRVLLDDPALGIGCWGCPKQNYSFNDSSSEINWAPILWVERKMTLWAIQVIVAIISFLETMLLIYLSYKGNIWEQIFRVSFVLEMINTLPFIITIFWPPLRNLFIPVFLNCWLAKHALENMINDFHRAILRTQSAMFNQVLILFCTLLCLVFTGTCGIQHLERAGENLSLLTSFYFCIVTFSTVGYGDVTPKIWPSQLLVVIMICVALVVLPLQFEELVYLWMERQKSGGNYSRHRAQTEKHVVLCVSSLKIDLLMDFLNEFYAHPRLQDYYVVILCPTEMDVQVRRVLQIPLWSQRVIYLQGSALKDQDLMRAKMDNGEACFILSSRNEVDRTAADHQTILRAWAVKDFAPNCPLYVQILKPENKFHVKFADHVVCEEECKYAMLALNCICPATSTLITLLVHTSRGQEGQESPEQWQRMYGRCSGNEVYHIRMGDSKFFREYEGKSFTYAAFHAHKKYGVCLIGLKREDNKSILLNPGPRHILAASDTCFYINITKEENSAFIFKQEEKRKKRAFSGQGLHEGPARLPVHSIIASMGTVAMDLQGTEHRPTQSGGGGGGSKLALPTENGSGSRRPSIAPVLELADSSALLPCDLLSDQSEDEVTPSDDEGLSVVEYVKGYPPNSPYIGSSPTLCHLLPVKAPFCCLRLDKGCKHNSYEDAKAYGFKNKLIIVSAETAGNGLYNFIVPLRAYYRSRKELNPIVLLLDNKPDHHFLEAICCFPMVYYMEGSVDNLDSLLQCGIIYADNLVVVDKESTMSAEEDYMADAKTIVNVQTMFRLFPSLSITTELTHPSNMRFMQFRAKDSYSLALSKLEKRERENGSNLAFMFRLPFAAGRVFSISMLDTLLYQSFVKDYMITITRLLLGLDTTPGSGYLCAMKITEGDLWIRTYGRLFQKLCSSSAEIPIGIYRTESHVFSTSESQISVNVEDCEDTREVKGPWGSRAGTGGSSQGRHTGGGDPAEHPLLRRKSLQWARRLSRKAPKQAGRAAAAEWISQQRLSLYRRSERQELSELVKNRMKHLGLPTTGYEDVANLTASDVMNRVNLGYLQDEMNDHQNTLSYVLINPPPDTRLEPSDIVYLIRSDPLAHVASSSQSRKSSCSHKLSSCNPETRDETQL
# Assay: KCNT1 patch clamp assay (SyncroPatch 384PE automated patch clamp)
# Type: cell-based
# Conditions: tetracycline inducible HEK-TREX cell line; perforated patch; step from −80 mV to 0 mV; room temperature; read-out: KCNT1-WT IC50
# Protocol: KCNT1—Patch Clamp Assay Inhibition of KCNT1 (KNa1.1, Slack) was evaluated using a tetracycline inducible cell line (HEK-TREX). Currents were recorded using the SyncroPatch 384PE automated, patch clamp system. Pulse generation and data collection were performed with PatchController384 V1.3.0 and DataController384 V1.2.1 (Nanion Technologies). The access resistance and apparent membrane capacitance were estimated using built-in protocols. Current were recorded in perforated patch mode (10 μM escin) from a population of cells. […] The cells were allowed to recover in the cell hotel prior to experimentation. Currents were recorded at room temperature. […] The extracellular solution was used as the wash, reference and compound delivery solution. […] Escin is made at a 5 mM stock in water, aliquoted, and stored at −20° C. The compound plate was created at 2× concentrated in the extracellular solution. The compound was diluted to 1:2 when added to the recording well. The amount of DMSO in the extracellular solution was held constant at the level used for the highest tested concentration. A holding potential of −80 mV with a 100 ms step to 0 mV was used. […] The average mean current from 3 sweeps was calculated and the % inhibition of each compound was calculated. The % Inhibition as a function of the compound concentration was fit with a Hill equation to derive IC50, slope, min and max parameters.
row,SMILES,IC50
1,"CC(=O)Oc1cccc(-c2noc(C(C)NC(=O)c3cc(C(F)(F)F)nn3C)n2)c1 (racemic) [Compound 185, 3-(5-(1-(1-methyl-3-(trifluoromethyl)-1H-pyrazole-5-carboxamido)ethyl)-1,2,4-oxadiazol-3-yl)phenyl acetate]",1 to 20 µM
2,"COC[C@H](NC(=O)c1cc(C(F)(F)F)nn1C)c1nc(-c2cccc(C)c2)no1 (single isomer, unassigned) [Compound 81]",≤ 1 µM
3,"C[C@H](NC(=O)c1cc(C2CC2)nn1C)c1nc(-c2cccc(F)c2)no1 (single isomer, unassigned) [Compound 94]",≥ 20 µM
4,"Cn1nc(C2CC2)cc1C(=O)N[C@@H](c1nc(-c2cccc(F)c2)no1)C1CC1 (single isomer, unassigned) [Compound 108]",≤ 1 µM
5,"Cn1nc(C2CC2)cc1C(=O)N[C@H](c1nc(-c2cccc(F)c2)no1)C1CC1 (single isomer, unassigned) [Compound 109]",≤ 1 µM
6,"CNC(=O)C[C@@H](NC(=O)c1cc(C(F)(F)F)nn1C)c1nc(-c2cccc(F)c2)no1 (single isomer, unassigned) [Compound 114]",≥ 20 µM
7,"CNC(=O)C[C@H](NC(=O)c1cc(C(F)(F)F)nn1C)c1nc(-c2cccc(F)c2)no1 (single isomer, unassigned) [Compound 115]",≥ 20 µM
8,"Cn1nc(C(F)(F)F)cc1C(=O)NC(CC(=O)NCCO)c1nc(-c2cccc(F)c2)no1 (single isomer, unassigned) [Compound 121]",≥ 20 µM
9,"COC(=O)CC(NC(=O)c1cc(C(F)(F)F)nn1C)c1nc(-c2cccc(F)c2)no1 (single isomer, unassigned) [Compound 125, methyl 3-[3-(3-fluorophenyl)-1,2,4-oxadiazol-5-yl]-3-[[2-methyl-5-(trifluoromethyl)pyrazole-3-carbonyl]amino]propanoate]",≤ 1 µM
10,"COC(=O)CC(NC(=O)c1cc(C(F)(F)F)nn1C)c1nc(-c2cccc(F)c2)no1 (single isomer, unassigned) [Compound 126, methyl 3-[3-(3-fluorophenyl)-1,2,4-oxadiazol-5-yl]-3-[[2-methyl-5-(trifluoromethyl)pyrazole-3-carbonyl]amino]propanoate]",≤ 1 µM
11,"Cn1nc(C(F)(F)F)cc1C(=O)NC(CC(N)=O)c1nc(-c2cccc(F)c2)no1 (single isomer, unassigned) [Compound 128, N-[3-amino-1-[3-(3-fluorophenyl)-1,2,4-oxadiazol-5-yl]-3-oxo-propyl]-2-methyl-5-(trifluoromethyl)pyrazole-3-carboxamide]",≥ 20 µM
12,"Cn1nc(C(F)(F)F)cc1C(=O)NC(CC(N)=O)c1nc(-c2cccc(F)c2)no1 (single isomer, unassigned) [Compound 129, N-[3-amino-1-[3-(3-fluorophenyl)-1,2,4-oxadiazol-5-yl]-3-oxo-propyl]-2-methyl-5-(trifluoromethyl)pyrazole-3-carboxamide]",≥ 20 µM

# Other lines, results leading:
row,IC50,SMILES
1,≤ 1 µM,"C[C@@H](NC(=O)c1cc(C(F)(F)F)nn1C)c1nc(-c2ccc(F)c(F)c2)no1 (single isomer, unassigned) [Compound 76]"
2,≤ 1 µM,"C[C@H](NC(=O)c1cc(C(F)(F)F)nn1C)c1nc(-c2ccc(F)c(F)c2)no1 (single isomer, unassigned) [Compound 77]"
3,≤ 1 µM,"COC[C@@H](NC(=O)c1cc(C(F)(F)F)nn1C)c1nc(-c2cccc(C)c2)no1 (single isomer, unassigned) [Compound 80]"
4,≤ 1 µM,"C[C@@H](NC(=O)c1cc(C(F)(F)F)nn1C(F)F)c1nc(-c2cccc(Cl)c2)no1 (single isomer, unassigned) [Compound 82]"
5,1 to 20 µM,"C[C@H](NC(=O)c1cc(C(F)(F)F)nn1C(F)F)c1nc(-c2cccc(Cl)c2)no1 (single isomer, unassigned) [Compound 83]"
6,1 to 20 µM,"C[C@@H](NC(=O)c1cc(C2CC2)nn1C)c1nc(-c2cccc(F)c2)no1 (single isomer, unassigned) [Compound 93]"
